How the values were obtained:
[1] = system: Puccinia recondita f. Sp. Tritici; test: Fungicidal activity against Puccinia recondita f. sp. tritici / wheat / leaf disc preventative (brown rust); type: in vivo; conditions: foliar, 200 ppm in the applied formulation, wheat leaf segments, preventative, compared to untreated control leaf disks, read-out: disease control
In short: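 Percent disease control relative to untreated check segments is scored once disease develops, 7 to 9 days after application. Wheat cv. Kanzler segments receive compound spray (200 ppm in formulation) one day before spore inoculation, then sit at 19° C. and 75% rh under 12 h light/12 h dark.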

[2] = system: Puccinia recondita f. Sp. Tritici; test: Fungicidal activity against Puccinia recondita f. sp. tritici / wheat / leaf disc curative (brown rust); type: in vivo; conditions: foliar, 24 h, 200 ppm in the applied formulation, wheat leaf segments, curative (applied 1 day after inoculation), compared to untreated control leaf disks, read-out: disease control
In short: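 Segments of wheat cv. Kanzler were laid on agar and inoculated with a spore suspension of the rust, then held in darkness at 19° C and 75% relative humidity. One day later the water-diluted formulated compound was applied, with incubation continued under a 12 h light/dark cycle.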

[3] = system: Phakopsora Pachyrhizi; test: Fungicidal activity against Phakopsora pachyrhizi / soybean / leaf disc preventative (Asian soybean rust); type: in vivo; conditions: foliar, 200 ppm in the applied formulation, soybean leaf disks, compared to untreated control leaf disks, read-out: disease control
In short: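 Scored 12 to 14 days post-application as percent control relative to untreated check discs, rust spores were sprayed under the disc one day after compound treatment. Incubation: 20°C, 75% rh, first 24–36 h in darkness, then 12 h daily light; discs kept on water agar.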

[4] = system: Glomerella lagenarium (Colletotrichum lagenarium); test: Fungicidal activity against Glomerella lagenarium (Colletotrichum lagenarium) liquid culture / cucumber / preventative (anthracnose); type: cell-based; conditions: Colletotrichum orbiculare; 20 ppm in the applied formulation; liquid culture (PDB), growth inhibition measured photometrically after 3 to 4 days; compared to untreated control; read-out: disease control
In short: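 Percent activity against the untreated check was derived from photometric growth measurements made 2 to 7 days after conidia in potato dextrose broth were combined with compound at 20 ppm. Cultures were kept dark at 24 °C and 96% humidity.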

CCON(Cc1ccc(-c2noc(C(F)(F)F)n2)cc1)C(=O)C(C)C [Compound 1.614, N-ethoxy-2-methyl-N-[[4-[5-(trifluoromethyl)-1,2,4-oxadiazol-3-yl]phenyl]methyl]-propanamide]
≥ 80%: pest or weed control at 200 ppm [1] | pest or weed control at 200 ppm [2] | pest or weed control at 200 ppm [3] | inhibition of growth at 20 ppm [4]

C#CCN(Cc1ccc(-c2noc(C(F)(F)F)n2)cc1)C(=O)CC(C)C [Compound 1.175, 3-methyl-N-prop-2-ynyl-N-[[4-[5-(trifluoromethyl)-1,2,4-oxadiazol-3-yl]phenyl]methyl]-butanamide]
≥ 80%: pest or weed control at 200 ppm [1] | pest or weed control at 200 ppm [2] | pest or weed control at 200 ppm [3] | inhibition of growth at 20 ppm [4]

CCCN(Cc1ccc(-c2noc(C(F)(F)F)n2)cc1)C(=O)CCOC [Compound 1.655, 3-methoxy-N-propyl-N-[[4-[5-(trifluoromethyl)-1,2,4-oxadiazol-3-yl]phenyl]methyl]-propanamide]
≥ 80%: pest or weed control at 200 ppm [1] | pest or weed control at 200 ppm [2] | pest or weed control at 200 ppm [3] | inhibition of growth at 20 ppm [4]

CN(Cc1ccc(-c2noc(C(F)(F)F)n2)cc1)C(=O)C1CCCC1 [Compound 1.515, N-methyl-N-[[4-[5-(trifluoromethyl)-1,2,4-oxadiazol-3-yl]phenyl]methyl]-cyclopentane-carboxamide]
≥ 80%: pest or weed control at 200 ppm [1] | pest or weed control at 200 ppm [2] | pest or weed control at 200 ppm [3] | inhibition of growth at 20 ppm [4]

COCCN(Cc1ccc(-c2noc(C(F)(F)F)n2)cc1)C(=O)C1CC1F (centres unmarked) [Compound 1.358, 2-fluoro-N-(2-methoxyethyl)-N-[[4-[5-(trifIuoromethyl)-1,2,4-oxadiazol-3-yl]phenyl]methyl]-cyclopropane-carboxamide]
≥ 80%: pest or weed control at 200 ppm [1] | pest or weed control at 200 ppm [2] | pest or weed control at 200 ppm [3] | inhibition of growth at 20 ppm [4]

CCCON(Cc1ccc(-c2noc(C(F)(F)F)n2)cc1)C(=O)C1(C)COC1 [Compound 1.309, 3-methyl-N-propoxy-N-[[4-[5-(trifluoromethyl)-1,2,4-oxadiazol-3-yl]phenyl]methyl]-oxetane-3-carboxamide]
≥ 80%: pest or weed control at 200 ppm [1] | pest or weed control at 200 ppm [2] | pest or weed control at 200 ppm [3] | inhibition of growth at 20 ppm [4]

CC1(C(=O)N(O)Cc2ccc(-c3noc(C(F)(F)F)n3)cc2)CC1 [Compound 1.764, N-hydroxy-1-methyl-N-[[4-[5-(trifluoromethyl)-1,2,4-oxadiazol-3-yl]phenyl]methyl]-cyclopropane-carboxamide]
≥ 80%: pest or weed control at 200 ppm [1] | pest or weed control at 200 ppm [2] | pest or weed control at 200 ppm [3] | inhibition of growth at 20 ppm [4]

CC(=O)N(Cc1ccc(-c2noc(C(F)(F)F)n2)cc1)CC(F)(F)F [Compound 1.705, N-(2,2,2-trifluoroethyl)-N-[[4-[5-(trifluoromethyl)-1,2,4-oxadiazol-3-yl]phenyl]methyl]-acetamide]
≥ 80%: pest or weed control at 200 ppm [1] | pest or weed control at 200 ppm [2] | pest or weed control at 200 ppm [3] | inhibition of growth at 20 ppm [4]

COCCCC(=O)OCCN(Cc1ccc(-c2noc(C(F)(F)F)n2)cc1)C(=O)CCCOC [Compound 1.725, 2-[4-methoxybutanoyl-[[4-[5-(trifluoromethyl)-1,2,4-oxadiazol-3-yl]phenyl]methyl]-amino]ethyl 4-methoxybutanoate]
≥ 80%: pest or weed control at 200 ppm [1] | pest or weed control at 200 ppm [2] | pest or weed control at 200 ppm [3] | inhibition of growth at 20 ppm [4]

CCN(Cc1ccc(-c2noc(C(F)(F)F)n2)cc1)C(=O)C1CC1C (centres unmarked) [Compound 1.500, N-ethyl-2-methyl-N-[[4-[5-(trifluoromethyl)-1,2,4-oxadiazol-3-yl]phenyl]methyl]-cyclopropane-carboxamide]
≥ 80%: pest or weed control at 200 ppm [1] | pest or weed control at 200 ppm [2] | pest or weed control at 200 ppm [3] | inhibition of growth at 20 ppm [4]

CON(Cc1ccc(-c2noc(C(F)(F)F)n2)cc1)C(C)=O [Compound 1.1, N-methoxy-N-[[4-[5-(trifluoromethyl)-1,2,4-Oxadiazol-3-yl]Phenyl]Methyl]-Acetamide]
≥ 80%: pest or weed control at 200 ppm [1] | pest or weed control at 200 ppm [2] | pest or weed control at 200 ppm [3] | inhibition of growth at 20 ppm [4]

CCN(C)C(=O)N(Cc1ccc(-c2noc(C(F)(F)F)n2)cc1)OC [Compound 3.17, 1-ethyl-3-methoxy-1-methyl-3-[[4-[5-(trifluoromethyl)-1,2,4-oxadiazol-3-yl]phenyl]methyl]urea]
≥ 80%: pest or weed control at 200 ppm [1] | pest or weed control at 200 ppm [2] | pest or weed control at 200 ppm [3] | inhibition of growth at 20 ppm [4]

CCON(Cc1ccc(-c2noc(C(F)(F)F)n2)cc1)C(=O)C1CC1(F)F (centres unmarked) [Compound 1.615, N-ethoxy-2,2-difluoro-N-[[4-[5-(trifluoromethyl)-1,2,4-oxadiazol-3-yl]phenyl]methyl]-cyclopropane-carboxamide]
≥ 80%: pest or weed control at 200 ppm [1] | pest or weed control at 200 ppm [2] | pest or weed control at 200 ppm [3] | inhibition of growth at 20 ppm [4]

COCCCC(=O)N(Cc1ccc(-c2noc(C(F)(F)F)n2)cc1)C1CC1 [Compound 1.136, N-cyclopropyl-4-methoxy-N-[[4-[5-(trifluoromethyl)-1,2,4-oxadiazol-3-yl]phenyl]methyl]-butanamide]
≥ 80%: pest or weed control at 200 ppm [1] | pest or weed control at 200 ppm [2] | pest or weed control at 200 ppm [3] | inhibition of growth at 20 ppm [4]

CCCOC(=O)N(Cc1ccc(-c2noc(C(F)(F)F)n2)cc1)OC [Compound 2.4, propyl N-methoxy-N-[[4-[5-(trifluoromethyl)-1,2,4-oxadiazol-3-yl]phenyl]methyl]-carbamate]
≥ 80%: pest or weed control at 200 ppm [1] | pest or weed control at 200 ppm [2] | pest or weed control at 200 ppm [3] | inhibition of growth at 20 ppm [4]

CON(Cc1ccc(-c2noc(C(F)(F)F)n2)cc1)C(=O)NCc1ccco1 [Compound 3.24, 3-(2-furylmethyl)-1-methoxy-1-[[4-[5-(trifluoromethyl)-1,2,4-oxadiazol-3-yl]phenyl]methyl]urea]
≥ 80%: pest or weed control at 200 ppm [1] | pest or weed control at 200 ppm [2] | pest or weed control at 200 ppm [3] | inhibition of growth at 20 ppm [4]

CCCC(=O)N(CC)Cc1ccc(-c2noc(C(F)(F)F)n2)cc1 [Compound 1.505, N-ethyl-N-[[4-[5-(trifluoromethyl)-1,2,4-oxadiazol-3-yl]phenyl]methyl]-butanamide]
≥ 80%: pest or weed control at 200 ppm [1] | pest or weed control at 200 ppm [2] | pest or weed control at 200 ppm [3] | inhibition of growth at 20 ppm [4]

CC(C)C(NC(=O)C1CC1)C(=O)N(Cc1ccc(-c2noc(C(F)(F)F)n2)cc1)C1CC1 (centres unmarked) [Compound 1.132, N-[1-[cyclopropyl-[[4-[5-(trifluoromethyl)-1,2,4-oxadiazol-3-yl]phenyl]methyl]-carbamoyl]-2-methyl-propyl]-cyclopropane-carboxamide]
≥ 80%: pest or weed control at 200 ppm [1] | pest or weed control at 200 ppm [2] | pest or weed control at 200 ppm [3] | inhibition of growth at 20 ppm [4]

CN(Cc1ccc(-c2noc(C(F)(F)F)n2)cc1)C(=O)C1CCCO1 (centres unmarked) [Compound 1.528, N-methyl-N-[[4-[5-(trifluoromethyl)-1,2,4-oxadiazol-3-yl]phenyl]methyl]-tetrahydrofuran-2-carboxamide]
≥ 80%: pest or weed control at 200 ppm [1] | pest or weed control at 200 ppm [2] | pest or weed control at 200 ppm [3] | inhibition of growth at 20 ppm [4]

N#CCC(=O)N(Cc1ccc(-c2noc(C(F)(F)F)n2)cc1)CC1CC1 [Compound 1.243, 2-cyano-N-(cyclopropylmethyl)-N-[[4-[5-(trifluoromethyl)-1,2,4-oxadiazol-3-yl]phenyl]methyl]-acetamide]
≥ 80%: pest or weed control at 200 ppm [1] | pest or weed control at 200 ppm [2] | pest or weed control at 200 ppm [3] | inhibition of growth at 20 ppm [4]

CC1CC1C(=O)N(CCO)Cc1ccc(-c2noc(C(F)(F)F)n2)cc1 (centres unmarked) [Compound 1.717, N-(2-hydroxyethyl)-2-methyl-N-[[4-[5-(trifluoromethyl)-1,2,4-oxadiazol-3-yl]phenyl]methyl]-cyclopropane-carboxamide]
≥ 80%: pest or weed control at 200 ppm [1] | pest or weed control at 200 ppm [2] | pest or weed control at 200 ppm [3] | inhibition of growth at 20 ppm [4]

CC(C)C(=O)N(Cc1ccc(-c2noc(C(F)(F)F)n2)cc1)CC(F)(F)F [Compound 1.689, 2-methyl-N-(2,2,2-trifluoroethyl)-N-[[4-[5-(trifluoromethyl)-1,2,4-oxadiazol-3-yl]phenyl]methyl]-propanamide]
≥ 80%: pest or weed control at 200 ppm [1] | pest or weed control at 200 ppm [2] | pest or weed control at 200 ppm [3] | inhibition of growth at 20 ppm [4]

O=C(C1CCC1)N(O)Cc1ccc(-c2noc(C(F)(F)F)n2)cc1 [Compound 1.761, N-hydroxy-N-[[4-[5-(trifluoromethyl)-1,2,4-oxadiazol-3-yl]phenyl]methyl]-cyclobutane-carboxamide]
≥ 80%: pest or weed control at 200 ppm [1] | pest or weed control at 200 ppm [2] | pest or weed control at 200 ppm [3] | inhibition of growth at 20 ppm [4]

— patent US11180462B2, “Microbiocidal oxadiazole derivatives” (SYNGENTA PARTICIPATIONS AG, priority 2015, dated 2021)
